Molecules are shown by their SMILES. Calls of active or inactive are those of the source. No cut-off for these calls is given here.

Assay [1] relates to A549. Description: cells. Particulars: Homo sapiens.
Description: Cytotoxicity against human A549 cells by SRB method
Assay [2] concerns A549. The assay is described as follows: Cytotoxicity against human A549 cells up to 200 ug/ml by SRB method. Format: functional, cell-based. For orientation: Sulforhodamine B stains cellular protein and so reports cell mass.
Assay [3] concerns Staphylococcus aureus. Description: Antibacterial activity against Staphylococcus aureus up to 200 ug/ml by microdilution assay. Format: functional, organism-based. (In general: In broth dilution the organism is exposed to a series of concentrations in liquid medium.)
Assay [4] relates to K562. The assay is described as follows: Cytotoxicity against human K562 cells up to 200 ug/ml by MTT assay. Format: functional, cell-based. A general note: Tetrazolium assays rely on reduction of a dye to a coloured formazan, in cell work by metabolically active cells.
The target in assay [5] is Acetylcholinesterase (Homo sapiens) (UniProt P22303). Description: Inhibition of human AChE up to 200 ug/ml by Ellman's assay.
In assay [6] the test system is Escherichia coli. Description: Antibacterial activity against Escherichia coli up to 200 ug/ml by microdilution assay. Format: functional, organism-based.
Assay [7] deals with K562. The assay is described as follows: cells. Particulars: Homo sapiens.
Description: Cytotoxicity against human K562 cells by MTT assay

Acetylcholinesterase (Homo sapiens), sequence (P22303 whole entry): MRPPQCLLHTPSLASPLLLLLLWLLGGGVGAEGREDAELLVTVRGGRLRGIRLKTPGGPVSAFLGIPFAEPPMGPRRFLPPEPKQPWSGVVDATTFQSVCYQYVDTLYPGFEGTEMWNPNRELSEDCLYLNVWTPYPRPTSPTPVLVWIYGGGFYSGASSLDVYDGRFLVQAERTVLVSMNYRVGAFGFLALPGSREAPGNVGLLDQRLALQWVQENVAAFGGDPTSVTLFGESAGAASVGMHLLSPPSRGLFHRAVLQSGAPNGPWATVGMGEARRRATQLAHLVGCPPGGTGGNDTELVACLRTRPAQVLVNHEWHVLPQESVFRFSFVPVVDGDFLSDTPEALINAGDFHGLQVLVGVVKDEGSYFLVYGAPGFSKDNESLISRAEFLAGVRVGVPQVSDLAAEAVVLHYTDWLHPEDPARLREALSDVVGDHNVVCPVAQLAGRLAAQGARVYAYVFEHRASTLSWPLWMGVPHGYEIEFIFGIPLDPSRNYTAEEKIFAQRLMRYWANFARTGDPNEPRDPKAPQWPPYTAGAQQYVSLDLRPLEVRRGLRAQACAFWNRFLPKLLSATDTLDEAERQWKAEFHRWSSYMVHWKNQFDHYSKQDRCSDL

With `O=c1[nH]cc(F)c(=O)[nH]1` [FLUOROURACIL], it took 20.8 µM to reach half-maximal inhibition in assay [1] (IC50).

As for `C/C(=C\C[C@@]1(c2ccccc2N(C)C)CCN(C)C1=O)C(=O)O`, the outcome in assay [2], in assay [3], in assay [4], in assay [5] and in assay [6] was inactive.

In the case of `C/C(=C\C[C@@]12CCN(C)[C@@H]1[N+](C)(C)c1ccccc12)C(=O)N[C@@H](Cc1ccccc1)C(=O)[O-]`, the result in assay [2], in assay [3], in assay [4], in assay [5] and in assay [6] was inactive.

For the molecule `COc1cccc2c1C(=O)c1c(O)c3c(c(O)c1C2=O)C[C@@](O)(C(=O)CO)C[C@@H]3O[C@H]1C[C@H](N)[C@H](O)[C@H](C)O1` [DOXORUBICIN], half-maximal inhibition in assay [7] (IC50) was put at 0.32 µM.

In the case of `C/C(=C\C[C@@]12CCN(C)[C@@H]1[N+](C)(C)c1ccccc12)C(=O)[O-]`, the result in assay [2], in assay [3], in assay [4], in assay [5] and in assay [6] was inactive.

Source of the values: ChEMBL document CHEMBL1153022, “Pyrrolidinoindoline alkaloids from Selaginella moellendorfii” (J Nat Prod, 2009).
